Test results published in the supplement of paper PMC11451515.

Tested on: NOMO1
Assay: cell viability relative to DMSO control; higher = less cytotoxic
Conditions: 48 h
Summary of the method: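 NOMO1 or SEM (500 cells/well) or P12-Ichikawa (1000 cells/well) leukemia cells were adapted for at least four passages in each medium. They were seeded in 1536-well plates (5 μl) and pin-dosed with library compounds in DMSO over an 11-point threefold series, 47 μM to 0.79 nM. CellTiter-Glo One luminescence was read after 48 h at 37°C. Viability is the per-plate percentage relative to DMSO wells, with cell-free wells as background.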

[1] = HPLM + 10% dialyzed FBS, 0.000781 µM
[2] = HPLM + 10% dialyzed FBS, 0.00234 µM
[3] = HPLM + 10% dialyzed FBS, 0.00702 µM
[4] = HPLM + 10% dialyzed FBS, 0.0211 µM
[5] = HPLM + 10% dialyzed FBS, 0.0632 µM
[6] = HPLM + 10% dialyzed FBS, 0.19 µM
[7] = HPLM + 10% dialyzed FBS, 0.569 µM
[8] = HPLM + 10% dialyzed FBS, 1.71 µM
[9] = HPLM + 10% dialyzed FBS, 5.12 µM
[10] = HPLM + 10% dialyzed FBS, 15.4 µM
[11] = HPLM + 10% dialyzed FBS, 46.1 µM
[12] = RPMI 5 mM glucose + 10% FBS, 0.000781 µM
[13] = RPMI 5 mM glucose + 10% FBS, 0.00234 µM
[14] = RPMI 5 mM glucose + 10% FBS, 0.00702 µM
[15] = RPMI 5 mM glucose + 10% FBS, 0.0211 µM
[16] = RPMI 5 mM glucose + 10% FBS, 0.0632 µM
[17] = RPMI 5 mM glucose + 10% FBS, 0.19 µM
[18] = RPMI 5 mM glucose + 10% FBS, 0.569 µM
[19] = RPMI 5 mM glucose + 10% FBS, 1.71 µM
[20] = RPMI 5 mM glucose + 10% FBS, 5.12 µM
[21] = RPMI 5 mM glucose + 10% FBS, 15.4 µM
[22] = RPMI 5 mM glucose + 10% FBS, 46.1 µM
[23] = RPMI 5 mM glucose + 10% dialyzed FBS, 0.000781 µM
[24] = RPMI 5 mM glucose + 10% dialyzed FBS, 0.00234 µM
[25] = RPMI 5 mM glucose + 10% dialyzed FBS, 0.00702 µM
[26] = RPMI 5 mM glucose + 10% dialyzed FBS, 0.0211 µM
[27] = RPMI 5 mM glucose + 10% dialyzed FBS, 0.0632 µM
[28] = RPMI 5 mM glucose + 10% dialyzed FBS, 0.19 µM
[29] = RPMI 5 mM glucose + 10% dialyzed FBS, 0.569 µM
[30] = RPMI 5 mM glucose + 10% dialyzed FBS, 1.71 µM
[31] = RPMI 5 mM glucose + 10% dialyzed FBS, 5.12 µM
[32] = RPMI 5 mM glucose + 10% dialyzed FBS, 15.4 µM
[33] = RPMI 5 mM glucose + 10% dialyzed FBS, 46.1 µM

Row | SMILES | cell viability [1] [%] | cell viability [2] [%] | cell viability [3] [%] | cell viability [4] [%] | cell viability [5] [%] | cell viability [6] [%] | cell viability [7] [%] | cell viability [8] [%] | cell viability [9] [%] | cell viability [10] [%] | cell viability [11] [%] | cell viability [12] [%] | cell viability [13] [%] | cell viability [14] [%] | cell viability [15] [%] | cell viability [16] [%] | cell viability [17] [%] | cell viability [18] [%] | cell viability [19] [%] | cell viability [20] [%] | cell viability [21] [%] | cell viability [22] [%] | cell viability [23] [%] | cell viability [24] [%] | cell viability [25] [%] | cell viability [26] [%] | cell viability [27] [%] | cell viability [28] [%] | cell viability [29] [%] | cell viability [30] [%] | cell viability [31] [%] | cell viability [32] [%] | cell viability [33] [%]
1 | COc1cc2ncnc(-n3nc(-c4ccccn4)nc3N)c2cc1OC | 82.3 | 102 | 111 | 101 | 110 | 93.7 | 95.2 | 112 | 86.3 | 74.8 | 0.936 | 83.5 | 86.2 | 92.7 | 101 | 88.6 | 96.3 | 84.9 | 99.3 | 84.7 | 78 | 1.29 | 82.5 | 89.4 | 93 | 110 | 98.4 | 96.7 | 98.5 | 94.5 | 81.8 | 76.4 | 3.64
2 | CCC[C@@H]1C[C@@H](C(=O)N[C@@H]([C@H]2O[C@H](SC)[C@H](O)[C@@H](O)[C@H]2O)[C@@H](C)O)N(C)C1.Cl | 103 | 121 | 123 | 122 | 125 | 128 | 110 | 100 | 79 | 96 | 68.8 | 129 | 121 | 107 | 111 | 114 | 111 | 124 | 103 | 111 | 124 | 111 | 118 | 112 | 119 | 105 | 119 | 109 | 111 | 108 | 107 | 104 | 98
3 | COC1=CC=C2Nc3cc(Cl)ccc3C(N=C3C=C(CN4CCCC4)C(=O)C(CN4CCCC4)=C3)=C2N1 | – | – | – | – | – | – | – | – | – | – | – | 105 | 103 | 120 | 110 | 133 | 127 | 125 | 135 | 116 | 119 | 119 | – | – | – | – | – | – | – | – | – | – | –
4 | O=C/1\C=C(/OC(=C1)/C2=C3SC4=C(SC3=CC=C2)C=CC=C4)N5CCOCC5 | 93.3 | 94.6 | 103 | 32.3 | 112 | 103 | 122 | 105 | 84 | 90.1 | 82 | 79.8 | 93.2 | 91.1 | 19.4 | 92 | 91.9 | 94.7 | 96.7 | 89.1 | 89.3 | 90.3 | 81.3 | 93.6 | 98.1 | 33.1 | 88.2 | 104 | 107 | 99.3 | 83.7 | 81.2 | 86.2
5 | CCNC(=O)C[C@@H]1\N=C(C2=CC=C(Cl)C=C2)/C3=C(C=CC(=C3)OC)[N]4C(=NN=C14)C | 121 | 130 | 123 | 121 | 114 | 120 | 107 | 84.8 | 68.5 | 29 | 15 | 108 | 118 | 103 | 114 | 121 | 105 | 104 | 90.2 | 76.1 | 26.7 | 6.87 | 106 | 116 | 117 | 109 | 114 | 112 | 98 | 89.7 | 72.4 | 28.4 | 9.69
6 | COc1cc(N2CCC(C(N)=O)CC2)ccc1Nc1nc(N)c(Cl)c(Nc2ccccc2[S+](=O)([O-])C(C)C)n1 | 85.6 | 79.1 | 99.3 | 98.3 | 84.8 | 96.5 | 99.6 | 87.1 | 66 | 46.7 | 2.93 | 91.9 | 83.5 | 94 | 89.9 | 89 | 96.4 | 92 | 91.2 | 75.5 | 65.9 | 2.25 | 83.9 | 94.2 | 90.9 | 80.1 | 96.4 | 93.8 | 89.6 | 80.4 | 60.7 | 54.1 | 4.26
